From patent publication US8765786B2, “1-substituted indazole derivative” (Dainippon Sumitomo Pharma Co., Ltd., priority 2012, dated 2014)

Tests used:
human α7 nAChR = target: T1, human α7 nAChR (Homo sapiens, UniProt P36544); assay: Evaluation of PAM activity with human α7 nACh receptor stably expressing cells (aequorin luminescence, FDSS7000); type: cell-based; settings: for activity at 10 µM / α7PAM (%) @ 10 μmol/L: test compound 10 μmol/L, ACh added at EC20, ratio of RLU (Max-Min) of test wells to control wells; for activity at 10 µM: read-out: α7PAM (%) @ 10 μmol/L; for PAM activity for α7 nAChR: result in words, ratio of RLU (Max-Min) to control wells, ACh EC20
T1 construct: expressed in transfected cells; host or cells: GH4C1 cells derived from rat pituitary (ATCC CCL-82.2)
Method in brief: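 Rat pituitary GH4C1 cells stably expressing human α7 nAChR and aequorin, loaded 4 h at room temperature with 4 μmol/L substrate, in Hanks/20 mM HEPES pH 7.4. After compound then ACh addition, 465 nm luminescence recorded 138 s; PAM activity is RLU (Max-Min) ratio to control wells.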

Slc: ddY mice = assay: Novel object recognition test in mice (mORT); type: in vivo
Protocol: Slc: ddY mice (25 g to 30 g, male, Japan SLC) can be used in the novel object recognition test wherein the interval between the 1st trial (training) and the 2nd trial (test) correlates with the memory loss for the objects used in the 1st trial, and a significant memory-loss is observed when the 2nd trial is performed 24 hours after the 1st trial. According to the test mechanism, the present compounds were administered prior to the 1st trial, and the enhancement effect on memory in the 2nd trial was evaluated.

Slc: Wistar rats = assay: Y-shaped maze test in rats, scopolamine-induced cognitive impairment; type: in vivo; settings: 0.6 mg/kg scopolamine HBr s.c.
Protocol: In Y-maze test, 0.6 mg/kg scopolamine HBr (cat#S0929, Sigma Aldrich, Japan) can be subcutaneously administered to Slc: Wistar rats (280 g to 300 g, male, Japan SLC) to cause cognitive impairment and decrease the percentage of alternation behavior. According to the test mechanism, the present compounds were treated prior to the administration of scopolamine, and the improvement effect on cognitive impairment was evaluated.

[1] = target: T2, hERG (human ether-a-go-go) potassium current (Homo sapiens, UniProt Q12809); assay: hERG inhibition test (whole-cell patch clamp, QPatch HT, CHO cells); type: cell-based; settings: room temperature
T2 construct: expressed in transfected cells; host or cells: CHO cells
Protocol: The hERG (human ether-a-go-go) potassium current in CHO cells which stably express hERG gene was recorded by whole-cell patch clamping technique using an automated patch clamp system, QPatch HT (Sophion Bioscience A/S). Inducing the hERG current, the membrane potential was held at −80 mV in voltage clamp mode, and then depolarized to −50 mV for 20 msec and then +20 mV for 5 sec. Then, the membrane potential was repolarized to −50 mV for 5 sec and the tail current amplitude was measured. The stimulation was given at a frequency of every 15 seconds, and the experiment was carried out at room temperature (22±2° C.) The compound was cumulatively administered to each cell in 4 concentrations, wherein the administration was done over 5 minutes in each concentration. The inhibition percentage of the inhibited current was calculated by comparing the current intensities before and after the compound was given in each concentration. According to Hill equation, each 50% inhibitory concentration was calculated (IC50 [μmol/L]). The test solutions used herein were as follows: extracellular solution (mmol/L): 2 CaCl2, 1 MgCl2, 10 HEPES, 4 KCl, 145 NaCl, 10 glucose,
intracellular solution (mmol/L): […], 1.8 MgCl2, 10 HEPES, 31 KOH, 10 EGTA, 120 KCl, 4 ATP

[2] = Measurement of brain penetration; type: in vivo; settings: LC-MS/MS of plasma and brain homogenates; for Kp: read-out: concentration ratio of the brain to the plasma
Excerpt: The plasma and brain homogenates were deproteinized with methanol and then centrifuged. The supernatant was filtered, and the obtained sample was quantified with LC-MS/MS to calculate the concentration of the plasma and brain.

Rat PK test = type: in vivo; settings: plasma, rats, intravenous and oral administration
Protocol: The present compound was administered intravenously in saline solution or orally in methylcellulose solution to 7 weeks old rats, and their blood was collected according to the following schedule:
(intravenous administration) 5 minutes, 15 minutes, 30 minutes, 1 hour, 2 hours, 4 hours, 6 hours and 24 hours after the administration
(oral administration) 15 minutes, 30 minutes, 1 hour, 2 hours, 4 hours, 6 hours and 24 hours after the administration
The collected blood was centrifuged at 3000 rpm for 10 minutes in a refrigerated centrifuge set at 4° C. The obtained plasma was measured with a HPLC to give a time curve of plasma level, thereby calculating the pharmacokinetic parameters.

T1 sequence (P36544 23-502): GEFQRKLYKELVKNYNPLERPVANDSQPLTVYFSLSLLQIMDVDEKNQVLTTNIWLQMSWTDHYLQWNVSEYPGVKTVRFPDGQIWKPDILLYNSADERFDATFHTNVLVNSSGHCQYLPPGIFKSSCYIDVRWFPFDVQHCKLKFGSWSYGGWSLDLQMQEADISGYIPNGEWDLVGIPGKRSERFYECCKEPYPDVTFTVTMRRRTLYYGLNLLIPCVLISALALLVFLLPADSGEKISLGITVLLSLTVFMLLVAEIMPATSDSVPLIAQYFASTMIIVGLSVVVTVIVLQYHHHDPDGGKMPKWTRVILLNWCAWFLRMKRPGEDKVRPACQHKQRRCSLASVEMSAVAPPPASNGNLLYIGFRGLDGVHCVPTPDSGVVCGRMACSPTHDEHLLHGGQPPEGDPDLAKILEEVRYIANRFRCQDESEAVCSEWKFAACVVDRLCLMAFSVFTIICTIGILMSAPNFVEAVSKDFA
T2 sequence (Q12809 whole entry): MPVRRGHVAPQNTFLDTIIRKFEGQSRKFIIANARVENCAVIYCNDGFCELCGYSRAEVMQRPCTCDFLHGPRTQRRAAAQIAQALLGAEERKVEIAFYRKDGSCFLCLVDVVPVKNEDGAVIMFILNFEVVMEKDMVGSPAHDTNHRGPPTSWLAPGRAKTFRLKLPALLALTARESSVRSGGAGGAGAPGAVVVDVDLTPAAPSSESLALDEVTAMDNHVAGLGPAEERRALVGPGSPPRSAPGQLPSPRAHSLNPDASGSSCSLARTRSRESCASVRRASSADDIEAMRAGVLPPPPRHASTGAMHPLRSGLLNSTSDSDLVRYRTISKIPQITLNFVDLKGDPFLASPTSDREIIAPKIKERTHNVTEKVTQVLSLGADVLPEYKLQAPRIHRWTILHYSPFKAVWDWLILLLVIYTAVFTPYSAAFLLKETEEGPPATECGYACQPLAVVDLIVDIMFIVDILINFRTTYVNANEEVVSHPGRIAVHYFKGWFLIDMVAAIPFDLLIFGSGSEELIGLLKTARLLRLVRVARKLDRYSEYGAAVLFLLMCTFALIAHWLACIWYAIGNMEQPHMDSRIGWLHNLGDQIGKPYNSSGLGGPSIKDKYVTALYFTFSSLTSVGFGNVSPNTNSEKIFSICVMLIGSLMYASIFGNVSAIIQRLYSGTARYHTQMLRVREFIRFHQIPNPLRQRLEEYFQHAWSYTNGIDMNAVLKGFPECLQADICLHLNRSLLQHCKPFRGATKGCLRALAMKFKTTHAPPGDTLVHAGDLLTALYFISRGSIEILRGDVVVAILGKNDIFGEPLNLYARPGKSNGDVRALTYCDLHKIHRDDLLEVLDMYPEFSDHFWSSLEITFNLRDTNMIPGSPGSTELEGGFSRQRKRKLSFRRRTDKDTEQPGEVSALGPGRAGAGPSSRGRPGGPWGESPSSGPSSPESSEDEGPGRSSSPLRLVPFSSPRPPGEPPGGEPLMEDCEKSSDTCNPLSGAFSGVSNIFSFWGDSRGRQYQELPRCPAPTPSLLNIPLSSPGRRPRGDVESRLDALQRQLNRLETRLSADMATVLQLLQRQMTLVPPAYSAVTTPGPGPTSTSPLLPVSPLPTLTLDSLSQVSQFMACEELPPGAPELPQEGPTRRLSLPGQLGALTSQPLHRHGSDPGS

Row | SMILES | α7PAM (%) @ 10 μmol/L (human α7 nAChR) | other results
1 | CCc1cccc2c1cnn2C1CCN(C(=O)N[C@H]2CC[C@H](OC)CC2)CC1 [Example 66, 4-(4-ethyl-1H-indazol-1-yl)-N-(trans-4-methoxycyclohexyl)piperidine-1-carboxamide] |  | activity at 10 µM (human α7 nAChR): 466%; dose at which efficacy was shown (Slc: ddY mice): 1 mg/kg
2 | CO[C@H]1CC[C@H](NC(=O)N2CCC(n3ncc4cc(C5CC5)ccc43)CC2)CC1 [Example 74, 4-(5-cyclopropyl-1H-indazol-1-yl)-N-(trans-4-methoxycyclohexyl)piperidine-1-carboxamide] |  | minimum effective dose (Slc: ddY mice; administered prior to 1st trial, 2nd trial 24 hours later): 0.1 mg/kg; efficacy at higher doses (Slc: ddY mice; dose of 0.3 mg/kg, 1.0 mg/kg or 3 mg/kg): efficacy did not decrease; dose from which cognitive function was significantly improved (Slc: Wistar rats): 0.3 mg/kg; IC50 [1]: 13.2 µM
3 | COc1nn(C2CCN(C(=O)NC3CCCCC3)CC2)c2ccc(C)cc12 [Example 258] | 941% | concentration ratio of the brain to the plasma [2]: 1.55; IC50 [1]: 47.3 µM
4 | CCc1ccc2c(c1)c(OC(C)C)nn2C1CCN(C(=O)NC2CCOCC2)CC1 [Example 63, 4-(5-ethyl-3-isopropoxy-1H-indazol-1-yl)-N-(tetrahydro-2H-pyran-4-yl)piperidine-1-carboxamide] |  | activity at 10 µM (human α7 nAChR): 358%; dose at which efficacy was shown (Slc: ddY mice): 3 mg/kg; dose from which a tendency to improve cognitive function was shown (Slc: Wistar rats): 0.3 mg/kg; IC50 [1]: > 10 µM
5 | CCOc1nn(C2CCN(C(=O)NC3CCCCC3)CC2)c2ccc(CC)cc12 [Example 60] | 846% | 
6 | COCc1c(C2CC2)ccc2c1cnn2C1CCN(C(=O)N[C@H]2CC[C@H](OC)CC2)CC1 [Example 216] | 271% | 
7 | COCc1c(C)ccc2c1cnn2C1CCN(C(=O)N[C@H]2CC[C@H](OC)CC2)CC1 [Example 214] | 207% | 
8 | CCc1nn(C2CCN(C(=O)N[C@H]3CC[C@H](OC)CC3)CC2)c2ccc(OC)cc12 [Example 240] | 833% | 
9 | COc1ccc2c(cnn2C2CCN(C(=O)NC3CCC(F)(F)CC3)CC2)c1 [Example 41, N-(4,4-difluorocyclohexyl)-4-(5-methoxy-1H-indazol-1-yl)piperidine-1-carboxamide] |  | PAM activity for α7 nAChR (human α7 nAChR): stronger PAM activity than others
10 | O=C(NCc1ccc(C(F)(F)F)cc1)N1CCC(n2ncc3cc(C4CC4)ccc32)CC1 [Example 195] | 232% | 
11 | CCc1c(OC)ccc2c1cnn2C1CCN(C(=O)N[C@H]2CC[C@H](OC)CC2)CC1 [Example 288] | 218% | 
12 | CO[C@H]1CC[C@H](NC(=O)N2CCC(n3ncc4cc(C(F)(F)F)ccc43)CC2)CC1 [Example 163, N-(trans-4-methoxycyclohexyl)-4-[5-(trifluoromethyl)-1H-indazol-1-yl]piperidine-1-carboxamide] |  | bioavailability (Rat PK test): 41%; activity at 10 µM (human α7 nAChR): 318%; Kp [2]: 2.01
13 | [2H]C([2H])([2H])O[C@H]1CC[C@H](NC(=O)N2CCC(n3ncc4cc(C(F)(F)F)ccc43)CC2)CC1 [Example 178, N-{trans-4-[(^2H3)methoxy]cyclohexyl}-4-[5-(trifluoromethyl)-1H-indazol-1-yl]piperidine-1-carboxamide] | 524% | 
14 | [2H]C([2H])([2H])O[C@H]1CC[C@H](NC(=O)N2CCC(n3ncc4c(OC)c(CC)ccc43)CC2)CC1 [Example 318] | 1084% | 
15 | O=C(NC1CCOCC1)N1CCC(n2ncc3cc(OC(F)(F)F)ccc32)CC1 [Example 227, N-(tetrahydro-2H-pyran-4-yl)-4-[5-(trifluoromethoxy)-1H-indazol-1-yl]piperidine-1-carboxamide] |  | bioavailability (Rat PK test): 69%; activity at 10 µM (human α7 nAChR): 768%; Kp [2]: 1.92
16 | O=C(Nc1ccc(C(F)(F)F)nc1)N1CCC(n2ncc3cc(C4CC4)ccc32)CC1 [Example 187] | 220% | 
17 | O=C(NC1CCC(F)(F)CC1)N1CCC(n2ncc3cc(-c4ccc(F)cc4)ccc32)CC1 [Example 70, N-(4,4-difluorocyclohexyl)-4-(5-(4-fluorophenyl)-1H-indazol-1-yl)piperidine-1-carboxamide] |  | activity at 10 µM (human α7 nAChR): 719%
18 | COC(C)c1c(C)ccc2c1cnn2C1CCN(C(=O)N[C@H]2CC[C@H](OC)CC2)CC1 (stereo partly drawn) [Example 233] | 307% | 
19 | CCOc1nn(C2CCN(C(=O)NC3CCOCC3)CC2)c2ccc(C(F)(F)F)cc12 [Example 267] | 292% | 
20 | CO[C@H]1CC[C@H](NC(=O)N2CCC(n3ncc4c(F)c(C)ccc43)CC2)CC1 [Example 223] | 257% | 
21 | CC(C)Oc1ccc2c(cnn2C2CCN(C(=O)NC3CCC(F)(F)CC3)CC2)c1 [Example 46, N-(4,4-difluorocyclohexyl)-4-(5-isopropoxy-1H-indazol-1-yl)piperidine-1-carboxamide] |  | activity at 10 µM (human α7 nAChR): 544%
22 | COCc1nn(C2CCN(C(=O)NC3CCCC3)CC2)c2ccc(C)cc12 [Example 67] | 436% | 
23 | CCc1ccc2c(cnn2[C@H]2CC[C@@H](C(=O)NC3CCCCC3)CC2)c1 [Example 127] | 806% | 
24 | COC1CCC(NC(=O)N2CCC(n3nc(C)c4cc(C)ccc43)CC2)CC1 (stereo not drawn) [Example 89] | 1506% | 
25 | COc1c(C2CC2)ccc2c1cnn2C1CCN(C(=O)NC2CCOCC2)CC1 [Example 303] | 1058% | 
26 | CCc1nn(C2CCN(C(=O)NC3CCOCC3)CC2)c2ccc(C)cc12 [Example 43] | 528% | 
27 | COc1ccc(C2(NC(=O)N3CCC(n4ncc5cc(C6CC6)ccc54)CC3)CC2)cc1 [Example 206] | 196% | 
28 | CCc1ccc2c(cnn2[C@H]2CC[C@@H](C(=O)NC3CCC(F)(F)CC3)CC2)c1 [Example 6, cis-N-(4,4-difluorocyclohexyl)-4-(5-ethyl-1H-indazol-1-yl)cyclohexanecarboxamide] |  | activity at 10 µM (human α7 nAChR): 285%

Now from value to molecule, other results behind:

Row | α7PAM (%) @ 10 μmol/L (human α7 nAChR) | SMILES | other results
29 | 286% | O=C(NC1CCC(F)(F)CC1)N1CCC(n2ncc3cc(N4CCCC4)ccc32)CC1 [Example 224] | 
30 | 453% | CCc1ccc2c(cnn2C2CCCN(C(=O)NC3CCC(F)(F)CC3)CC2)c1 (stereo not drawn) [Example 73] | 
31 | 370% | O=C(NC1CCC(F)(F)CC1)N1CCC(n2ncc3c(OC(F)F)cccc32)CC1 [Example 201] | 
32 | 861% | COc1ccc2c(cnn2C2CCN(C(=O)NC3CCC(F)(F)CC3)CC2)c1C [Example 278] | 
33 | 420% | CCCc1ccc2c(cnn2C2CCN(C(=O)NC3CCC(OC)CC3)CC2)c1 (stereo not drawn) [Example 76] | 
34 | 1092% | CCOc1nn(C2CCN(C(=O)NC3CCC(F)(F)CC3)CC2)c2ccc(CC)cc12 [Example 61] | 
35 | 3205% | COc1ccc2c(cnn2C2CCN(C(=O)NC3CCCCC3)CC2)c1 [Example 40] | PAM activity for α7 nAChR (human α7 nAChR): stronger PAM activity than others
36 | 1445% | CCc1ccc2c(cnn2[C@H]2CC[C@@H](NC(=O)C3CCCC3)CC2)c1 [Example 123] | 
37 | 356% | CCc1ccc2c(cnn2C2CCN(C(=O)NC3CCC(OC)CC3)CC2)c1 (stereo not drawn) [Example 92] | 
